# In US6503449B1, “Process for the control of microbial contamination in water-based solids suspensions” (Ciba Specialty Chemicals Corporation, priority 1998, dated 2003):
# Legend:
# [1] = test system: Gram negative organisms; assay: Single/multiple pass through 2406 Nearfield Accoustical Processor with biocide, Nutrient Agar plates; assay type: cell-based; details: 250 ppm; after one pass through the sonicator, 16 kHz and 20 kHz, 750 kg/hr; initial count 4.8×10^6 cfu per millilitre
# Excerpt: (§1) A mixture of Pigment Red 23,215.5 parts, Emulan OG (RTM) (35% solution in water), 153.7 parts, tributyl phosphate, 2 parts, and water, 128.8 parts are dispersed by re-circulation through a Bachofen KDL200 bead-mill until colouristic properties are within specification of UNISPERSE (RTM) Red RBS-PI as detailed in Example 1 and adjusted to pH 8.0-8.5 with 20% sodium hydroxide solution. This material is identified as having a bacterial count of 4.8×10^6 colony-forming units (cfu) per millilitre comprised of a mixture of Gram positive and Gram negative bacteria. It is treated with 250 parts per million(ppm) of pentane 1,5-dialdehyde and pumped through a 2406 Nearfield Accoustical Processor sonicating at 16 kHz and 20 kHz respectively with a plate separation of 6 mm (approximately) at a flow rate of 750 kg/hr. Assessment bacterial activity is then done by spreading a sample of the pigment dispersion on Nutrient Agar(NA) plates and incubating at 30° C. for 48 hours. […] The temperature rise is 1° C. per pass, from a starting value of 20° C.
# [2] = test system: Gram positive organisms; assay: as above; assay type: cell-based; details: 250 ppm; after four passes through the sonicator, 16 kHz and 20 kHz, 750 kg/hr; initial count 4.8×10^6 cfu per millilitre
# Excerpt: as §1
structure (smiles),measurement,setting,value
"O=CCCCC=O [glutaraldehyde, pentane-1,5-dialdehyde]","bacterial activity on Nutrient Agar plates, Gram negative organisms",[1],no Gram negative organisms are evident
same,"bacterial activity on Nutrient Agar plates, Gram positive organisms",[2],no Gram positive organisms are found
